Reference: patent US9776972B2, “Pyrazole derivatives as arginine methyltransferase inhibitors and uses thereof” (priority 2013, dated 2017)
Where a name gives a salt, the structure may show the parent alone. Read-outs that look alike come from different tables or passages of the source.

How the values were obtained:
human PRMT8 = human PRMT8 (Homo sapiens, UniProt Q9NR22); assay: PRMT8 Biochemical Assay (3H-SAM Flashplate, peptide substrate)
Excerpt: S-adenosylmethionine (SAM), S-adenosylhomocysteine (SAH), bicine, Tween20, dimethylsulfoxide (DMSO), bovine skin gelatin (BSG), isopropyl-β-D-thiogalactopyranoside (IPTG), and Tris(2-carboxyethyl)phosphine hydrochloride solution (TCEP) were purchased from Sigma-Aldrich at the highest level of purity possible. ^3H-SAM was purchase from American Radiolabeled Chemicals with a specific activity of 80 Ci/mmol. 384-well streptavidin Flashplates were purchased from PerkinElmer.
Peptide representative of human histone H4 residues 31-45 was synthesized with an N-terminal linker-affinity tag motif and a C-terminal amide cap by 21st Century Biochemicals.
E. coli (BL21(DE3) Gold, Stratagene) made competent by the CaCl2 method were transformed with the PRMT8 construct and ampicillin selection. Protein over-expression was accomplished by growing the PRMT8 expressing E. coli clone and inducing expression with 0.3 mM IPTG at 16° C. The culture was grown for 12 hours, harvested by centrifugation, and stored at −80° C. for purification.
GST-tagged PRMT8 was eluted with 50 mM Tris, 2 mM glutathione, pH 7.8. Pooled fractions were cleaved by thrombin (10 U) and dialysed in buffer A. GST was removed by reloading the cleaved protein sample onto glutathione sepharose column and PRMT8 was collected in the flow-through fractions. PRMT8 was purified further by ceramic hydroxyapatite chromatography. The column was washed with 50 mM phosphate buffer, 100 mM NaCl, 5% glycerol, 5 mM β-mercaptoethanol, pH 7.8 and PRMT8 was eluted by 100 mM phosphate in the same buffer. Protein was concentrated and buffer was exchanged to 50 mM Tris, 300 mM NaCl, 10% glycerol, 5 mM β-mercaptoethanol, pH 7.8 by ultrafiltration.
General Procedure for PRMT8 Enzyme Assays on Peptide Substrates.
The assays were all performed in a buffer consisting of 20 mM Bicine (pH=7.6), 1 mM TCEP, 0.005% BSG, and 0.002% Tween 20, prepared on the day of use. […] DMSO (1 ul) was added to Columns 11, 12, 23, 24, rows A-H for the maximum signal control and 1 ul of SAH, a known product and inhibitor of PRMT8, was added to columns 11, 12, 23, 24, rows I-P for the minimum signal control. A cocktail (40 ul) containing the PRMT8 enzyme was added by Multidrop Combi (Thermo-Fisher). The compounds were allowed to incubate with PRMT8 for 30 min at room temperature, then a cocktail (10 ul) containing ^3H-SAM and peptide was added to initiate the reaction (final volume=51 ul). […] The assays were stopped by the addition of non-radiolabeled SAM (10 ul) to a final concentration of 400 uM, which dilutes the ^3H-SAM to a level where its incorporation into the peptide substrate is no longer detectable. 50 ul of the reaction in the 384-well polypropylene plate was then transferred to a 384-well Flashplate and the biotinylated peptides were allowed to bind to the streptavidin surface for at least 1 hour before being washed once with 0.1% Tween20 in a Biotek ELx405 plate washer. The plates were then read in a PerkinElmer TopCount plate reader to measure the quantity of ^3H-labeled peptide bound to the Flashplate surface, measured as disintegrations per minute (dpm) or alternatively, referred to as counts per minute (cpm).
Where dpm=disintegrations per minute, cmpd=signal in assay well, and min and max are the respective minimum and maximum signal controls.
Where top and bottom are the normally allowed to float, but may be fixed at 100 or 0 respectively in a 3-parameter fit. The Hill Coefficient normally allowed to float but may also be fixed at 1 in a 3-parameter fit. Y is the % inhibition and X is the compound concentration.

[1] = test system: mono-methyl arginine in RKO cells; assay: RKO Methylation Assay, In Cell Western (ICW) for mono-methyl arginine and DNA content; format: cell-based; conditions: Homo sapiens, RKO, 72 h
In short: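 RKO cells treated with compound for 72 hours at 37 °C, then methanol-fixed and stained overnight at 4 °C with anti-mono-methyl arginine antibody, plus DRAQ5 for DNA. Signal ratio from 700 and 800 nm infrared scans normalized to DMSO (minimum) and 20 μM reference compound (maximum); EC30 from triplicate curves.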

[2] = single experiment or average of multiple experiments
[3] = read-out: EC30 (In Cell Western data, Numerical, μM)
[4] = RKO cells, 72 hours, mono-methyl arginine, percent activation, class symbols, read-out: EC30 (In Cell Western data)
[5] = RKO cells, 72 hours, mono-methyl arginine, percent activation, single experiment or average of multiple experiments, read-out: EC30 (In Cell Western data, Numerical)

Sequence of human PRMT8 (Q9NR22 whole entry): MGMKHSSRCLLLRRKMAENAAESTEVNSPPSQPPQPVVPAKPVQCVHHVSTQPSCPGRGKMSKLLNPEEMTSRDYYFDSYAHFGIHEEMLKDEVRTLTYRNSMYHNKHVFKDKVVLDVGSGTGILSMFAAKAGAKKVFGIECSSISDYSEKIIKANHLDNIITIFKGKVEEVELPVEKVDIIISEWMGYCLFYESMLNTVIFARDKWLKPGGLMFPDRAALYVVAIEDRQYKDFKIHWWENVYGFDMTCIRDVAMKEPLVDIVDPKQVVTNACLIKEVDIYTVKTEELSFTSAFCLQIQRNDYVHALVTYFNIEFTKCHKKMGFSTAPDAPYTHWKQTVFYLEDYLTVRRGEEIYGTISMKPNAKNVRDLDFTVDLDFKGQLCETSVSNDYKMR

| Structure (SMILES) | IC50 (human PRMT8; [2]) | EC30 [1, 3] | IC50 (human PRMT8) | EC30 [1, 4] | EC30 [1, 5] | EC30 ([1]; read-out: EC30 (In Cell Western data)) |
| --- | --- | --- | --- | --- | --- | --- |
| COc1ccc(-c2n[nH]cc2CN(C)CCN)cc1Cl [Compound 125] | 0.308 µM | 1.57 µM |  |  |  |  |
| CNCCN(C)Cc1c[nH]nc1-c1ccc(NC(C)C)cc1 [Compound 295] | 0.0337 µM |  | < 0.1 µM | < 3 µM | 0.116 µM |  |
| CN(CCN)Cc1c[nH]nc1-c1ccc(F)c(Cl)c1 [Compound 124] | 0.294 µM |  |  |  | 1.23 µM |  |
| CN(CCN)Cc1c[nH]nc1-c1cccc(Cl)c1F [Compound 123] | 0.532 µM |  |  |  | 2.96 µM |  |
| CNCCN(C)Cc1c[nH]nc1-c1ccc(OC2CCC2)c(F)c1 [Compound 305] | 0.0183 µM |  | < 0.1 µM | < 3 µM | 0.193 µM |  |
| CN(CCN)Cc1n[nH]cc1-c1ccc(Cl)cc1 [Compound 102] | 0.311 µM |  |  |  | 2.32 µM |  |
| CCn1ncc(CN(C)CCNC)c1-c1ccc(F)cc1 [Compound 7] | 3.24 µM |  |  |  | 5.76 µM |  |
| CC[C@@H](C)Oc1ccc(-c2n[nH]cc2CN(C)CCNC)cc1 [Compound 308] | 0.0141 µM |  | < 0.1 µM | < 3 µM | 0.065 µM |  |
| CCNC(=O)c1ccc(-c2n[nH]cc2CN(C)CCN)cc1 [Compound 136] | 0.496 µM |  |  |  | > 20 µM |  |
| CNCCN(C)Cc1c[nH]nc1-c1ccc(OC(CO)C(C)C)cc1 (centres unmarked) [Compound 286] | 0.0553 µM |  | < 0.1 µM | < 3 µM | 0.812 µM |  |
| CN(CCN)Cc1c[nH]nc1-c1cc(Cl)cc(Cl)c1 [Compound 137] | 0.656 µM |  |  |  | 4.18 µM |  |
| CN(CCN)Cc1c[nH]nc1-c1ccc(Cl)cc1F [Compound 132] | 0.365 µM | 2.4 µM |  |  |  |  |
| CNCCN(C)Cc1c[nH]nc1-c1ccc(Oc2ncccn2)cc1 [Compound 302] | 0.123 µM |  | 0.101 to 1 µM | < 3 µM | 0.976 µM |  |
| CC(O)c1ccc(-c2n[nH]cc2CN(C)CCN)cc1 (centres unmarked) [Compound 115] | 1.1 µM |  |  |  |  |  |
| CN(CCN)Cc1n[nH]cc1-c1ccc(C2CC2)cc1 [Compound 104] | 0.301 µM |  |  |  | 3.92 µM |  |
| Cc1ccc(-c2n[nH]cc2CN(C)CCN)c(F)c1 [Compound 108] | 1 µM |  |  |  |  |  |
| COc1ccc(-c2n[nH]cc2CN(C)CCN)c(F)c1 [Compound 107] | 0.912 µM |  |  |  |  |  |
| CNCCN(C)Cc1c[nH]nc1-c1ccc(OC(COC)C(C)C)cc1 (centres unmarked) [Compound 311] | 0.0509 µM |  | < 0.1 µM | < 3 µM | 0.227 µM |  |
| Cc1c(F)cccc1-c1n[nH]cc1CN(C)CCN [Compound 129] | 0.99 µM |  |  |  | 7.38 µM |  |
| CCC(COC)Oc1ccc(-c2n[nH]cc2CN(C)CCNC)cc1 (centres unmarked) [Compound 310] | 0.017 µM |  | < 0.1 µM | < 3 µM | 0.032 µM |  |
| CNCCN(C)Cc1c[nH]nc1-c1ccc(N(C)C(C)C)cc1 [Compound 300] | 0.0647 µM |  | < 0.1 µM | < 3 µM | 0.611 µM |  |
| CN(CCN)Cc1c[nH]nc1-c1ccc(C(F)(F)F)c(F)c1 [Compound 141] | 0.305 µM |  |  |  | 0.583 µM |  |

| Structure (SMILES) | IC50 (human PRMT8; [2]) | EC30 [1, 3] | IC50 (human PRMT8) | EC30 [1, 4] | EC30 [1, 5] | EC30 ([1]; read-out: EC30 (In Cell Western data)) |
| --- | --- | --- | --- | --- | --- | --- |
| CC(C)c1ccc(-c2c[nH]nc2CN(C)CCN)cc1 [Compound 101] | 0.57 µM | 5.99 µM |  |  |  |  |
| CC(C)Oc1ccc(-c2c[nH]nc2CN(C)CCN)cc1F [Compound 144] | 0.171 µM |  |  |  | 0.284 µM |  |
| COc1cc(-c2n[nH]cc2CN(C)CCN)ccc1F [Compound 142] | 0.273 µM |  |  |  | 2.1 µM |  |
| CN(CCN)Cc1c[nH]nc1-c1ccccc1C#N [Compound 140] | 8.27 µM |  |  |  | > 20 µM |  |
| CN(CCN)Cc1c[nH]nc1-c1ccc(C2CC2)cc1 [Compound 116] | 0.124 µM |  |  |  | 1.41 µM |  |
| COCCn1ncc(CN(C)CCN)c1-c1ccc(F)cc1 [Compound 6] |  |  |  |  | > 20 µM |  |
| CN(CCN)Cc1c[nH]nc1-c1cc(F)cc(Cl)c1 [Compound 121] | 0.218 µM |  |  |  | 2.07 µM |  |
| CNCCN(C)Cc1c[nH]nc1-c1ccc(OCC2CC2)cc1 [Compound 288] | 0.0142 µM |  | < 0.1 µM | < 3 µM | 0.076 µM |  |
| CNCCN(C)Cc1c[nH]nc1-c1ccc(OC2COC2)cc1 [Compound 283] | 0.0428 µM |  | < 0.1 µM | < 3 µM | 0.379 µM |  |
| COc1cc(Cl)cc(-c2n[nH]cc2CN(C)CCN)c1 [Compound 127] | 0.548 µM |  |  |  | 7.01 µM |  |
| CC(C)Oc1ccc(-c2n[nH]cc2CN(C)CCN)cc1F [Compound 97] | 0.089 µM | 0.184 µM |  |  |  |  |
| CNCCN(C)Cc1c[nH]nc1-c1ccc(Oc2ccncn2)cc1 [Compound 312] | 0.0909 µM |  | < 0.1 µM | < 3 µM | 0.824 µM |  |
| CNCCN(C)Cc1c[nH]nc1-c1ccc(Oc2cncnc2)cc1 [Compound 303] | 0.0547 µM |  | < 0.1 µM | < 3 µM | 0.712 µM |  |
| Cc1cc(Cl)ccc1-c1n[nH]cc1CN(C)CCN [Compound 133] | 0.142 µM |  |  |  | 2.91 µM |  |
| CNCCN(C)Cc1c[nH]nc1-c1ccc(Oc2ccccc2)c(F)c1 [Compound 297] | 0.00668 µM |  | < 0.1 µM | < 3 µM | 0.08 µM |  |
| CN(CCN)Cc1c[nH]nc1-c1ccc(C(F)(F)F)cc1Cl [Compound 135] | 1.32 µM |  |  |  | 8.05 µM |  |
| CNCCN(C)Cc1cnn(C)c1-c1ccc(OC(C)C)cc1 [Compound 244, hydrochloride] |  | 0.142 µM |  |  |  | < 3 µM |
| Cc1cc(C#N)ccc1-c1n[nH]cc1CN(C)CCN [Compound 110] | 0.54 µM |  |  |  |  |  |
| CC(=O)c1cccc(-c2n[nH]cc2CN(C)CCN)c1 [Compound 112] | 0.335 µM |  |  |  |  |  |
| CN(CCN)Cc1c[nH]nc1-c1cc(F)cc(F)c1 [Compound 111] | 0.799 µM |  |  |  |  |  |
| COc1ccccc1-c1n[nH]cc1CN(C)CCN [Compound 109] | 2.08 µM |  |  |  |  |  |
